Measured values from patent US11730743B2, “Protection of cells from degeneration and treatment of geographic atrophy” (University of Kentucky Research Foundation, priority 2012, dated 2023).

Key:
wild-type mice = experiment: Alu RNA- or pAlu-induced RPE degeneration after subretinal injection (fundus photographs, ZO-1 flat mounts); assay type: in vivo; settings: subretinal pAlu, test agent intravitreous
Procedure: Subretinal injection and imaging. Subretinal injections (1 μL) in mice were performed using a Pico-Injector (PLI-100, Harvard Apparatus). In vivo transfection of plasmids was achieved using 10% Neuroporter (Genlantis). Fundus imaging was performed on a TRC-50 IX camera (Topcon) linked to a digital imaging system (Sony). Immunolabeling of RPE flat mounts was performed using antibodies against human zonula occludens-1 (Invitrogen).
Fundus photography. Retinal photographs of dilated mouse eyes were taken with a TRC-50 IX camera (Topcon) linked to a digital imaging system (Sony).
Immunolabeling. Human eyes fixed in 2-4% paraformaldehyde were prepared as eyecups, cryoprotected in 30% sucrose, embedded in optimal cutting temperature compound (Tissue-Tek OCT; Sakura Finetek), and cryosectioned into 10 μm sections. Depigmentation was achieved using 0.25% potassium permanganate and 0.1% oxalic acid. Immunohistochemical staining was performed with the rabbit antibody against NLRP3 (1:100, Sigma Aldrich) or rabbit antibody against Caspase-1 (prediluted, AbCam). Isotype IgG was substituted for the primary antibody to assess the specificity of the staining. Bound antibody was detected with biotin-conjugated secondary antibodies, followed by incubation with ABC reagent and visualized by Vector Blue (Vector Laboratories). Levamisole (Vector Laboratories) was used to block endogenous alkaline phosphatase activity. Slides were washed in PBS, counterstained with neutral red (Fisher Scientific), rinsed with deionized water, air dried, and then mounted in Vectamount (Vector Laboratories). Fluorescent labeling of human tissue was performed with the rabbit antibody against PYCARD (1:50, Clone N-15, Santa Cruz Biotechnology). Immunolabeling was visualized by fluorescently conjugated anti-rabbit secondary antibody (Invitrogen). Tissue autofluorescence was quenched by incubating the sections in 0.3% Sudan black (Fisher Scientific). Sections were mounted in Vectashield with DAPI (Vector Laboratories). Mouse RPE/choroid flat mounts were fixed with 4% paraformaldehyde or 100% methanol, stained with rabbit antibodies against human zonula occludens-1 (1:100, Invitrogen) and visualized with Alexa594 (Invitrogen). All images were obtained using the Leica SP-5 or Zeiss Axio Observer Z1 microscopes.
Subretinal injection. Subretinal injections (1 μL) in mice were performed using a Pico-Injector (PLI-100, Harvard Apparatus). In vivo transfection of plasmids coding for two different Alu sequences (pAlu) or empty control vector (pNull) (Bennett et al., 2008; Kaneko et al., 2011; Shaikh et al., 1997) was achieved using 10% Neuroporter (Genlantis). AAV1-BEST1-Cre (Alexander and Hauswirth, 2008) or AAV1-BEST1-GFP were injected at […] pfu/mL and in vitro transcribed Alu RNA was injected at 0.3 mg/mL.
Drug treatments. siRNAs formulated in siRNA buffer (20 mM KCL, 0.2 mM MgCl2 in HEPES buffer at pH 7.5; Dharmacon) or phosphate buffered saline (PBS; Sigma-Aldrich); the TLR4 antagonist Ultra Pure Rhodobacter sphaeroides LPS (LPS-RS, InvivoGen), a peptide inhibitor of MyD88 homodimerization IMG-2005 (IMGENEX), control inhibitor (IMGENEX), recombinant IL-18 (Medical & Biological Laboratories), neutralizing rat antibodies against mouse IL-1β (IMGENEX), neutralizing rat antibodies against mouse IL-18 (Medical & Biological Laboratories), isotype control IgGs (R&D Systems or eBioscience as appropriate), Caspase-1 inhibitor Z-WEHD-FMK (R&D Systems), Caspase-3 inhibitor Z-DEVD-FMK (R&D Systems), Caspase control inhibitor Z-FA-FMK (R&D Systems), (2R,4R)-APDC (Enzo Life Sciences), Glipizide (Sigma-Aldrich), Glyburide (Sigma-Aldrich), and P2X7 receptor antagonist A438079 (Tocris Bioscience) were dissolved in phosphate buffered saline (PBS; Sigma-Aldrich) or dimethyl sulfoxide (DMSO; Sigma-Aldrich), and injected into the vitreous humor in a total volume of 1 μL with a 33-gauge Exmire microsyringe (Ito Corporation). […]

NLRP3 = NLRP3 mRNA by real-time RT-PCR in human RPE cells; assay type: cell-based
Source text: mRNA abundance. Transcript abundance was quantified by real-time RT-PCR using an Applied Biosystems 7900 HT Fast Real-Time PCR system using the 2^−ΔΔct method.
Real-time PCR. Total RNA was extracted from tissues or cells using Trizol reagent (Invitrogen) according to manufacturer's recommendations, DNase treated and reverse transcribed (QuantiTect, Qiagen). The RT products (cDNA) were amplified by real-time quantitative PCR (Applied Biosystems 7900 HT Fast Real-Time PCR system) with Power SYBR green Master Mix. Oligonucleotide primers specific for human IL1B, human NLRP3, human 18S rRNA, mouse Myd88, mouse Nlrp3, mouse 1118, and mouse 18S rRNA were used. The QPCR cycling conditions were 50° C. for 2 min, 95° C. for 10 min followed by 40 cycles of a two-step amplification program (95° C. for 15 s and 58° C. for 1 min). At the end of the amplification, melting curve analysis was applied using the dissociation protocol from the Sequence Detection system to exclude contamination with unspecific PCR products. […] For negative controls, no RT products were used as templates in the QPCR and verified by the absence of gel-detected bands. Relative expressions of target genes were determined by the 2^−ΔΔct method.

IL18 = IL18 mRNA by real-time RT-PCR in human RPE cells; assay type: cell-based

N[C@@]1(C(=O)O)CN[C@@H](C(=O)O)C1 [APDC, (2R,4R)-APDC]
blocked: pAlu-induced RPE degeneration (wild-type mice) | pAlu-induced NLRP3 mRNA upregulation (NLRP3) | pAlu-induced IL18 mRNA upregulation (IL18)
